US7968579B2, “Antifungal triazole derivatives” (Daewoong Pharmaceutical Co., Ltd., priority 2005, dated 2011)
Converted amounts (≈) assume the structure as drawn.

Assays:
Candida parapsilosis = assay: In vitro assay for antifungal activity; type: cell-based; settings: RPMI 1640, 1% DMSO, concentration at which 50% of the fungi were inhibited vs negative control, alamarblue, 24 hours; for MIC: Lodderomyces parapsilosis
Protocol: (§1) Fungal strains to be tested were inoculated onto Sabouraud dextrose agar, YM agar, and Potato dextrose agar and sufficiently cultured at 35° C. for two to three days. Individual single colonies of the yeast fungi selected out of the cultured strains were sufficiently suspended in 5 ml of 0.85% sterile physiological saline, followed by correction to adjust the absorbance thereof at 530 nm to 0.108. The suspensions were diluted serially by 1:50 and then 1:20 in RPMI 1640 media to prepare liquid inocula ranging in cell count from 1.0×10^3 to 5.0×10^3 CFU/ml.
(§2) Antifungal samples were prepared by diluting the compounds of the present inventions in RPMI 1640 media to serial concentrations ranging from 0.0625 to 32 μg/ml. As a vehicle, DMSO was contained in a final concentration of 1% (V/V) in the antifungal samples. 0.1 ml of each of the dilutions in series was added to equal volume of each of the fungal inocula.
(§3) Concentrations of the compounds at which 50% of the fungi were inhibited compared to the negative control were determined using the growth indicator alamarblue.

Candida albicans [1] = assay: In vitro assay for antifungal activity; type: cell-based; settings: RPMI 1640, 1% DMSO, concentration at which 50% of the fungi were inhibited vs negative control, alamarblue, 24 hours; for MIC: Candida albicans
Protocol: as §1, §2, §3

Aspergillus fumigatus = assay: In vitro assay for antifungal activity; type: cell-based; settings: RPMI 1640, 1% DMSO, concentration at which 50% of the fungi were inhibited vs negative control, alamarblue; for MIC: Aspergillus fumigatus
Protocol: as §1, §2, §3

Aspergillus flavus = assay: In vitro assay for antifungal activity; type: cell-based; settings: RPMI 1640, 1% DMSO, concentration at which 50% of the fungi were inhibited vs negative control, alamarblue; for MIC: Aspergillus flavus
Protocol: as §1, §2, §3

Candida tropicalis = assay: In vitro assay for antifungal activity; type: cell-based; settings: RPMI 1640, 1% DMSO, concentration at which 50% of the fungi were inhibited vs negative control, alamarblue, 24 hours; for MIC: Candida tropicalis
Protocol: as §1, §2, §3

Cryptococcus neoformans = assay: In vitro assay for antifungal activity; type: cell-based; settings: RPMI 1640, 1% DMSO, concentration at which 50% of the fungi were inhibited vs negative control, alamarblue; for MIC: Cryptococcus neoformans
Protocol: as §1, §2, §3

Aspergillus terreus = assay: In vitro assay for antifungal activity; type: cell-based; settings: RPMI 1640, 1% DMSO, concentration at which 50% of the fungi were inhibited vs negative control, alamarblue; for MIC: Aspergillus terreus
Protocol: as §1, §2, §3

Candida glabrata = assay: In vitro assay for antifungal activity; type: cell-based; settings: RPMI 1640, 1% DMSO, concentration at which 50% of the fungi were inhibited vs negative control, alamarblue, 24 hours; for MIC: Nakaseomyces glabratus
Protocol: as §1, §2, §3

Candida krusei = assay: In vitro assay for antifungal activity; type: cell-based; settings: RPMI 1640, 1% DMSO, concentration at which 50% of the fungi were inhibited vs negative control, alamarblue, 24 hours; for MIC: Pichia kudriavzevii
Protocol: as §1, §2, §3

[2] = Assay for acute toxicity in mice; type: in vivo; settings: oral administration, suspension in aqueous 0.5% methylcellulose, up to a dose of 2000 mg/kg, two weeks
Candida albicans [3] = assay: In vivo assay for antifungal activity (systemic candidiasis); settings: male mice infected i.v. with Candida albicans; 20 mg/kg orally once a day for seven days; at 28 days after the infection
Protocol: Azole compounds synthesized in Examples were assayed for antifungal activity in vivo.
A suspension containing Candida albicans in a concentration ranging from 7×10^7 to 8×10^7 cfu/ml was intravenously injected at a dose of 0.1 ml/head into 10 male mice. 2 hrs after the injection, the compounds of the present inventions were orally administered at a dose of 20 mg/kg to respective mice in groups of 10. The compounds were administered once a day for seven days. The periods of time for which the infected mice lived were counted. The number of mice that survived the fungal infection was represented as % survival for each test group.

| MIC (Candida parapsilosis) [µg/mL] | MIC (Candida albicans [1]) [µg/mL] | MIC (Aspergillus fumigatus) [µg/mL] | MIC (Aspergillus flavus) [µg/mL] | MIC (Candida tropicalis) [µg/mL] | MIC (Cryptococcus neoformans) [µg/mL] | MIC (Aspergillus terreus) [µg/mL] | MIC (Candida glabrata) [µg/mL] | MIC (Candida krusei) [µg/mL] | Antifungal Activity (MIC) Candida parapsilosis (Candida parapsilosis) | Antifungal Activity (MIC) Candida albicans (Candida albicans [1]) | Antifungal Activity (MIC) Aspergillus fumigatus (Aspergillus fumigatus) [µg/mL] | Antifungal Activity (MIC) Aspergillus flavus (Aspergillus flavus) [µg/mL] | Antifungal Activity (MIC) Candida tropicalis (Candida tropicalis) [µg/mL] | Antifungal Activity (MIC) Cryptococcus neoformans (Cryptococcus neoformans) [µg/mL] | Antifungal Activity (MIC) Aspergillus terreus (Aspergillus terreus) [µg/mL] | Antifungal Activity (MIC) Candida glabrata (Candida glabrata) [µg/mL] | Antifungal Activity (MIC) Candida krusei (Candida krusei) [µg/mL] | Structure (SMILES) | toxic syndromes (acute toxicity) [2] | % survival (Candida albicans [3]) [%] |
| --- | --- | --- | --- | --- | --- | --- | --- | --- | --- | --- | --- | --- | --- | --- | --- | --- | --- | --- | --- | --- |
| 0.031 (≈ 0.075 µM) | ≤ 0.015 | 0.5 (≈ 1.21 µM) | 4 (≈ 9.68 µM) | 1 (≈ 2.42 µM) | 0.125 (≈ 0.302 µM) | 2 (≈ 4.84 µM) | 2 (≈ 4.84 µM) | 1 (≈ 2.42 µM) |  |  |  |  |  |  |  |  |  | C[C@@H](n1cc(-c2ccccc2F)cn1)[C@](O)(Cn1cncn1)c1ccc(F)cc1F [Example 3, (2R,3R)-3-(4-(2-fluorophenyl)1H-pyrazole-1-yl)-2-(2,4-difluorophenyl)-1-(1H-1,2,4-triazole-1-yl)butane-2-ol] |  |  |
| ≤ 0.015 | ≤ 0.015 | 2 (≈ 4.65 µM) | 8 (≈ 18.6 µM) | 0.063 (≈ 0.147 µM) | 0.25 (≈ 0.582 µM) | 4 (≈ 9.31 µM) | 1 (≈ 2.33 µM) | 0.25 (≈ 0.582 µM) |  |  |  |  |  |  |  |  |  | C[C@@H](n1cc(-c2cccc(Cl)c2)cn1)[C@](O)(Cn1cncn1)c1ccc(F)cc1F [Example 9, (2R,3R)-3-(4-(3-chlorophenyl)-1H-pyrazole-1-yl)-2-(2,4-difluorophenyl)-1-(1H-1,2,4-triazole-1-yl)butane-2-ol] |  |  |
|  |  |  |  |  |  |  |  |  | ≦0.015 μg/ml | ≦0.015 μg/ml | 1 | 4 | 0.25 | 0.25 | 4 | 2 | 0.5 | C[C@@H](n1cc(-c2ccccc2)cn1)[C@](O)(Cn1cncn1)c1ccc(F)cc1F [Example 2] |  |  |
| ≤ 0.015 | ≤ 0.015 | 1 (≈ 2.11 µM) | 4 (≈ 8.43 µM) | 0.125 (≈ 0.264 µM) | 0.125 (≈ 0.264 µM) | 1 (≈ 2.11 µM) | 2 (≈ 4.22 µM) | 0.5 (≈ 1.05 µM) |  |  |  |  |  |  |  |  |  | C[C@@H](n1cc(-c2ccc(Br)cc2)cn1)[C@](O)(Cn1cncn1)c1ccc(F)cc1F [Example 15, (2R,3R)-3-(4-(4-bromophenyl)-1H-pyrazole-1-yl)-2-(2,4-difluorophenyl)-1-(1H-1,2,4-triazole-1-yl)butane-2-ol] |  |  |
| ≤ 0.015 | ≤ 0.015 | 1 (≈ 2.42 µM) | 8 (≈ 19.4 µM) | 0.25 (≈ 0.605 µM) | 0.031 (≈ 0.075 µM) | 2 (≈ 4.84 µM) | 2 (≈ 4.84 µM) | 0.5 (≈ 1.21 µM) |  |  |  |  |  |  |  |  |  | C[C@@H](n1cc(-c2cccc(F)c2)cn1)[C@](O)(Cn1cncn1)c1ccc(F)cc1F [Example 8, (2R,3R)-3-(4-(3-fluorophenyl)-1H-pyrazole-1-yl)-2-(2,4-difluorophenyl)-1-(1H-1,2,4-triazole-1-yl)butane-2-ol] |  |  |

| Structure (SMILES) | MIC (Candida parapsilosis) [µg/mL] | MIC (Candida albicans [1]) [µg/mL] | MIC (Aspergillus fumigatus) [µg/mL] | MIC (Aspergillus flavus) [µg/mL] | MIC (Candida tropicalis) [µg/mL] | MIC (Cryptococcus neoformans) [µg/mL] | MIC (Aspergillus terreus) [µg/mL] | MIC (Candida glabrata) [µg/mL] | MIC (Candida krusei) [µg/mL] | Antifungal Activity (MIC) Candida parapsilosis (Candida parapsilosis) | Antifungal Activity (MIC) Candida albicans (Candida albicans [1]) | Antifungal Activity (MIC) Aspergillus fumigatus (Aspergillus fumigatus) [µg/mL] | Antifungal Activity (MIC) Aspergillus flavus (Aspergillus flavus) [µg/mL] | Antifungal Activity (MIC) Candida tropicalis (Candida tropicalis) [µg/mL] | Antifungal Activity (MIC) Cryptococcus neoformans (Cryptococcus neoformans) [µg/mL] | Antifungal Activity (MIC) Aspergillus terreus (Aspergillus terreus) [µg/mL] | Antifungal Activity (MIC) Candida glabrata (Candida glabrata) [µg/mL] | Antifungal Activity (MIC) Candida krusei (Candida krusei) [µg/mL] | toxic syndromes (acute toxicity) [2] | % survival (Candida albicans [3]) [%] |
| --- | --- | --- | --- | --- | --- | --- | --- | --- | --- | --- | --- | --- | --- | --- | --- | --- | --- | --- | --- | --- |
| C[C@@H](n1cc(-c2ccc(Cl)cc2)cn1)[C@](O)(Cn1cncn1)c1ccc(F)cc1F [Example 14, (2R,3R)-3-(4-(4-chlorophenyl)-1H-pyrazole-1-yl)-2-(2,4-difluorophenyl)-1-(1H-1,2,4-triazole-1-yl)butane-2-ol] | ≤ 0.015 | ≤ 0.015 | 1 (≈ 2.33 µM) | 4 (≈ 9.31 µM) | 0.031 (≈ 0.0721 µM) | 0.25 (≈ 0.582 µM) | 2 (≈ 4.65 µM) | 2 (≈ 4.65 µM) | 0.25 (≈ 0.582 µM) |  |  |  |  |  |  |  |  |  | not to suffer from any toxic syndromes |  |
| C[C@@H](n1cc(-c2ccc([N+](=O)[O-])cc2)cn1)[C@](O)(Cn1cncn1)c1ccc(F)cc1F [Example 17, (2R,3R)-2-(2,4-difluorophenyl)-3-(4-(4-nitrophenyl)-1H-pyrazole-1-yl)-1-(1H-1,2,4-triazole-1-yl)butane-2-ol] | ≤ 0.015 | ≤ 0.015 | 2 (≈ 4.54 µM) | 8 (≈ 18.2 µM) | 0.125 (≈ 0.284 µM) | 0.031 (≈ 0.0704 µM) | 2 (≈ 4.54 µM) | 4 (≈ 9.08 µM) | 0.25 (≈ 0.568 µM) |  |  |  |  |  |  |  |  |  | not to suffer from any toxic syndromes |  |
| OC(Cn1cncn1)(Cn1cncn1)c1ccc(F)cc1F [Fluconazole, reference compound] | > 8 | 4 (≈ 13.1 µM) | > 128 | > 128 | > 8 | 8 (≈ 26.1 µM) | > 128 | > 32 | > 32 |  |  |  |  |  |  |  |  |  |  | 10 |
